According to article PMC12894981, “Structure-guided screening identifies Tucatinib as dual inhibitor for MCT1/2” (EMBO Reports, 2025):
Substitutions are numbered along the chain they refer to. Like-named read-outs stand apart in the source and are kept apart here.

Experiments:
[1] = molecular target: T1, MCT2-embigin (Homo sapiens, UniProt O60669); assay: pyruvate uptake, pyronicSF fluorescence, transfected HEK-293T cells; assay type: cell-based
T1 construct: gene SLC16A7; fusion: embigin C-terminus joined by GGSG linker to MCT2 N-terminus, C-terminal twin-Strep tag; HEK-293F, DDM then GDN, heterodimer; in transport tests expressed as fusion in HEK-293T cells; with Embigin
T1 sequence (O60669 1-478): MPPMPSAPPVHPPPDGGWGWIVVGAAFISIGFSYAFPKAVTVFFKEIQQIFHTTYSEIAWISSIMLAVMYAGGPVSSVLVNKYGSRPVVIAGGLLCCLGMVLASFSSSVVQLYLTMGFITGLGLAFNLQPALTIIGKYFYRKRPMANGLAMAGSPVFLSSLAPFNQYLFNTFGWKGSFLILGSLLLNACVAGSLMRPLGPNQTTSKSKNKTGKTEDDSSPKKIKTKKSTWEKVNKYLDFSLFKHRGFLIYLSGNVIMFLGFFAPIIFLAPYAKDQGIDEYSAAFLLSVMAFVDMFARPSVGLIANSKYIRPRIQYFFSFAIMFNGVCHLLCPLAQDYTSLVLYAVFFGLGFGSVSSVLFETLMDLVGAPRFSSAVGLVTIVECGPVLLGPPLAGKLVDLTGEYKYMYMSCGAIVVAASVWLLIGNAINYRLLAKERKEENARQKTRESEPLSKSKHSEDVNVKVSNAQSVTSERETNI
T1 sequence (Q6PCB8 33-327 partner): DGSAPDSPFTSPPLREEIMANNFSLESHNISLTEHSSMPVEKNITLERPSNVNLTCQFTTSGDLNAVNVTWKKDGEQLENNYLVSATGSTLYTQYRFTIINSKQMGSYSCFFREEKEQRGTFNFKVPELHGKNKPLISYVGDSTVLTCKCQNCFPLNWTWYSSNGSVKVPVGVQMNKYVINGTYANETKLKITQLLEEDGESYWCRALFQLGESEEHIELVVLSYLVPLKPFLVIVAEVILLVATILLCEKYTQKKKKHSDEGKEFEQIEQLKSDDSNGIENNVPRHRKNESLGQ

[2] = molecular target: T2, MCT2-embigin (Homo sapiens, UniProt O60669, Y34A); assay: bio-layer interferometry, SSA biosensor, […] fit; assay type: binding; settings: pH 7.4, 25 °C
T2 construct: gene SLC16A7; fusion: embigin C-terminus joined by GGSG linker to MCT2 N-terminus, C-terminal twin-Strep tag; HEK-293F, DDM then GDN, heterodimer; in transport tests expressed as fusion in HEK-293T cells; with Embigin
T2 sequence (O60669 1-478 Y34A): T1 sequence (O60669 1-478) with Y34A
T2 sequence (Q6PCB8 33-327 partner): T1 sequence (Q6PCB8 33-327 partner)

[3] = molecular target: T3, MCT2-embigin (Homo sapiens, UniProt O60669, F262A); assay: bio-layer interferometry, SSA biosensor, […] fit; assay type: binding; settings: pH 7.4, 25 °C
T3 construct: gene SLC16A7; fusion: embigin C-terminus joined by GGSG linker to MCT2 N-terminus, C-terminal twin-Strep tag; HEK-293F, DDM then GDN, heterodimer; in transport tests expressed as fusion in HEK-293T cells; with Embigin
T3 sequence (O60669 1-478 F262A): T1 sequence (O60669 1-478) with F262A
T3 sequence (Q6PCB8 33-327 partner): T1 sequence (Q6PCB8 33-327 partner)

[4] = molecular target: T1, MCT2-embigin; assay: bio-layer interferometry, SSA biosensor, […] fit; assay type: binding; settings: read-out: affinity (KD)
[5] = system: T4, MCT1-Basigin-2; assay: pyruvate uptake, pyronicSF fluorescence, transfected HEK-293T cells; assay type: cell-based, Homo sapiens; settings: 5 mM pyruvate; 30 min pre-incubation
T4 construct: gene SLC16A1; fusion MCT1-Basigin-2; expressed in HEK-293T cells with pyronicSF for transport; with Basigin

[6] = molecular target: T1, MCT2-embigin; assay: bio-layer interferometry, SSA biosensor, […] fit
[7] = molecular target: T3, MCT2-embigin; assay: bio-layer interferometry, SSA biosensor, […] fit; assay type: binding
[8] = molecular target: T5, MCT2-embigin (Homo sapiens, UniProt O60669, F351A); assay: bio-layer interferometry, SSA biosensor, […] fit; assay type: binding
T5 construct: gene SLC16A7; fusion: embigin C-terminus joined by GGSG linker to MCT2 N-terminus, C-terminal twin-Strep tag; HEK-293F, DDM then GDN, heterodimer; in transport tests expressed as fusion in HEK-293T cells; with Embigin
T5 sequence (O60669 1-478 F351A): T1 sequence (O60669 1-478) with F351A
T5 sequence (Q6PCB8 33-327 partner): T1 sequence (Q6PCB8 33-327 partner)

[9] = molecular target: T2, MCT2-embigin; assay: bio-layer interferometry, SSA biosensor, […] fit; assay type: binding

SMILES	IC50 [1]	KD [2]	KD [3]	Kd [4]	IC50 [5]	Kd [6]	Kd [7]	Kd [8]	Kd [9]
Cc1n[nH]c(C)c1Cc1sc2c(c1C(=O)N1C[C@H](O)CO1)c(=O)n(C)c(=O)n2CC(C)C [AR-C155858]	981 nM	The binding kinetics of AR-C155858 bound to MCT2(Y34A)-embigin (A)	MCT2(F262A)-embigin (B)	600 nM					
Cc1[nH]nc(C(F)(F)F)c1Cc1sc2c(c1C(=O)N1C[C@](C)(O)CO1)c(=O)n(C)c(=O)n2C(C)C [AZD3965]					1240 nM				
Cc1cc(Nc2ncnc3ccc(NC4=NC(C)(C)CO4)cc23)ccc1Oc1ccn2ncnc2c1 [Tucatinib]	2710 nM				2600 nM	600 nM	33200 nM	211000 nM	13800 nM
